Measured values reported in US20250214947A1, “3,4-DIHYDROQUINOXALINE-2-CARBOXIMIDE DERIVATIVE COMPOUND AND PHARMACEUTICAL COMPOSITION COMPRISING SAME FOR PREVENTING OR TREATING CANCER DISEASE” (Cureverse Incorporated, priority 2022, published 2025).

Assays:
HDAC8 = molecular target: T1, HDAC8 (Homo sapiens, UniProt Q9BY41); assay: HDAC8 inhibitory activity analysis (in vitro), RFU analysis, HDAC Fluorogenic assay kit; type: biochemical; conditions: 10 μM; compared with TSA or SAHA
T1 construct: purchased BPS bioscience
T1 sequence (Q9BY41 1-377): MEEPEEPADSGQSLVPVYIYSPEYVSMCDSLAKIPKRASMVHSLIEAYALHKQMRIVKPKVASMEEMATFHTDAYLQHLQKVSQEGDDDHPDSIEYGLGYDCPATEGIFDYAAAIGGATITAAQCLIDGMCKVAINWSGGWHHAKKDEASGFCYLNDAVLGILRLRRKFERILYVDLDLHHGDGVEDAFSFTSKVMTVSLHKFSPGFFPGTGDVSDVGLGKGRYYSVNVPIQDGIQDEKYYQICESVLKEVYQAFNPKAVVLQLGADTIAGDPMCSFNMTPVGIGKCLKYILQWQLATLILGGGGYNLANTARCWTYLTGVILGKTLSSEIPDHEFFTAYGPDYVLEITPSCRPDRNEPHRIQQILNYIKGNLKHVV
Experimental: The compound of the Example was diluted to 1 mM (1% DMSO concentration) using DMSO to obtain a final concentration of 10 μM, and prepared by diluting 1/10 with assay buffer. In a 96-well black round-bottom plate, 5 μL of the diluted compound of the Example, 5 μL of the diluted HDAC substrate 2A, 5 μL of BSA (1 mg/mL), 5 µL of the HDAC8 enzyme diluted to an appropriate concentration, and 30 μL of assay buffer were added, and the enzyme reaction was performed at 37° C. for 30 minutes. […] Afterwards, 50 μL of 2×HDAC developer was added to each well. After reacting for 15 minutes at room temperature, the fluorescence values at excitation wavelengths of 350-380 nm and emission wavelengths of 440-460 nm were measured using a microplate reader (Synergy Neo).

Liver cancer cells Huh-7 = assay: Liver cancer cell growth inhibition, CellTiter-Glo Luminescent Cell Viability Assay; type: cell-based; conditions: various concentrations; day 1; FIG. 6
Experimental: In addition, an analysis of liver cancer growth inhibitory activity was performed. Liver cancer cells Huh-7 cells were dispensed in a 96-well plate at 1×10^4 cells/ml, and after 20 hours, PCI34051, Example 27, and Example 35 were added at various concentrations, and cultured for 24 and 48 hours at 37° C. in a 5% CO2 atmosphere. After culturing, 100 l CellTiter-Glo Luminescent Cell Viability Assay reagent was added and the luminescence signal was measured after 0.5-1 hour. The luminescence signal was measured using IVIS [PerkinElmer, (Waltham, USA)].

HDAC6 = molecular target: T2, HDAC6 (Homo sapiens, UniProt Q9UBN7); assay: Selective inhibitory effect, HDAC Fluorogenic assay kit, HDAC6; conditions: read-out: HDAC6 enzyme activity (%)
T2 sequence (Q9UBN7 1-1215): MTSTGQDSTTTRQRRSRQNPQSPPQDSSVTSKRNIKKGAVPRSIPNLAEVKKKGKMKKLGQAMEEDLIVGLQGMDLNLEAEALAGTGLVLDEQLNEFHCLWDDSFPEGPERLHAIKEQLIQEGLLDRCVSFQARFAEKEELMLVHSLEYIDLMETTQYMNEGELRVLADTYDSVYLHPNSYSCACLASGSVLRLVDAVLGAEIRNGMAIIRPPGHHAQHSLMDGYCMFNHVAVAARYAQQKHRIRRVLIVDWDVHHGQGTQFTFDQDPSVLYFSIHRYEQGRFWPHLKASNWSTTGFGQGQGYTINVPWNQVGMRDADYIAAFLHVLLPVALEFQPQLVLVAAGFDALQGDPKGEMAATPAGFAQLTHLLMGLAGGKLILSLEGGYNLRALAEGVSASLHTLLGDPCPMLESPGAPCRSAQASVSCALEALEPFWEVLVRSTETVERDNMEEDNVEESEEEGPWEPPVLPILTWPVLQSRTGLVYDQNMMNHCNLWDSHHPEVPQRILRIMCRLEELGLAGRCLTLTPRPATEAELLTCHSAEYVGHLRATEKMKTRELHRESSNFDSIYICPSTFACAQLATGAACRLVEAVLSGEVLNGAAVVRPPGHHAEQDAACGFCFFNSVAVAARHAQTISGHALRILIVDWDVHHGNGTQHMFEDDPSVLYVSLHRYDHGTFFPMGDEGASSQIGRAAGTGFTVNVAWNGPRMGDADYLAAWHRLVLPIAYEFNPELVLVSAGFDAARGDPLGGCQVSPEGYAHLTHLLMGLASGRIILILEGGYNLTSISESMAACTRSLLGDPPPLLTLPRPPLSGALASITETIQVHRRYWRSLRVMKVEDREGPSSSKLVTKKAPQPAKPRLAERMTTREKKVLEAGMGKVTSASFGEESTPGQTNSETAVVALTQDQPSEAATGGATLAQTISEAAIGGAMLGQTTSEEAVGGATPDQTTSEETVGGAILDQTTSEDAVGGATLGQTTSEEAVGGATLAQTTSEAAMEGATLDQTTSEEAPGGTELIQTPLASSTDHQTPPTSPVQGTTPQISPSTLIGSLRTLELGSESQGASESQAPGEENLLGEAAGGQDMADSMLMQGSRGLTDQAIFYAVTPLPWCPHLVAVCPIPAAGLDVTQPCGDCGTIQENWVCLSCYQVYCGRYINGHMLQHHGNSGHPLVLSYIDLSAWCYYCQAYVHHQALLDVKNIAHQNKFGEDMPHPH
Experimental: (§1) For analysis, HDAC substrate 3 was diluted in buffer to a concentration of 200 μM and used in HDAC 1, 2, 3, 6, and 10 assays, HDAC substrate 2A was diluted in buffer to a concentration of 200 μM and used in HDAC 4, 7, 9, and 11 assays, HDAC substrate 2A was diluted in buffer to a concentration of 20 μM and used in HDAC 8 assays. For the HDAC 11 assay, a dedicated buffer included in the kit was used separately, and the same buffer was used for the remaining assays. The compound of the Example was diluted to 1 mM (1% DMSO concentration) using DMSO to obtain a final concentration of 10 μM, and prepared by diluting 1/10 with assay buffer. In a 96-well black round-bottom plate, 5 μL of the diluted compound of the Example, 5 μL of the diluted HDAC substrate, 5 μL of BSA (1 mg/ml), 5 μL of the HDAC enzyme diluted to the appropriate concentration, and 30 μL of assay buffer were added, and the enzyme reaction was performed at 37° C. for 30 minutes. […] Afterwards, 50 μL of 2×HDAC developer was added to each well. After reacting for 15 minutes at room temperature, the fluorescence values at excitation wavelengths of 350-380 nm and emission wavelengths of 440-460 nm were measured using a microplate reader (Synergy Neo).

HDAC2 = HDAC2 (Homo sapiens, UniProt Q92769); assay: Selective inhibitory effect, HDAC Fluorogenic assay kit, HDAC2; conditions: read-out: HDAC2 enzyme activity (%)
HDAC2, sequence (Q92769 whole entry): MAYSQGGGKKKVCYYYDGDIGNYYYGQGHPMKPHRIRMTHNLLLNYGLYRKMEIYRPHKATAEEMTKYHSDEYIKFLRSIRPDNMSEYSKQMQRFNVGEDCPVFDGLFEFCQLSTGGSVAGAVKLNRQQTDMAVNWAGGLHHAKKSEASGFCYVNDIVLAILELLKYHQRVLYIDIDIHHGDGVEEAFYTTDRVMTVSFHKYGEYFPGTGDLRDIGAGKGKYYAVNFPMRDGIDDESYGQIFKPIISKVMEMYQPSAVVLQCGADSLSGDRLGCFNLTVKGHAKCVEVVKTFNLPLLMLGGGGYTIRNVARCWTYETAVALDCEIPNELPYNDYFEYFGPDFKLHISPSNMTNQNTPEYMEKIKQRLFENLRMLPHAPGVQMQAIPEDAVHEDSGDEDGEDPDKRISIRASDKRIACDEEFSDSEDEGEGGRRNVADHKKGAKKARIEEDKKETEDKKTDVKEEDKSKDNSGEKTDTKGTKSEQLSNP
Experimental: as §1

HDAC10 = molecular target: T3, HDAC10 (Homo sapiens, UniProt Q969S8); assay: Selective inhibitory effect, HDAC Fluorogenic assay kit, HDAC10; conditions: read-out: HDAC10 enzyme activity (%)
T3 sequence (Q969S8 1-669): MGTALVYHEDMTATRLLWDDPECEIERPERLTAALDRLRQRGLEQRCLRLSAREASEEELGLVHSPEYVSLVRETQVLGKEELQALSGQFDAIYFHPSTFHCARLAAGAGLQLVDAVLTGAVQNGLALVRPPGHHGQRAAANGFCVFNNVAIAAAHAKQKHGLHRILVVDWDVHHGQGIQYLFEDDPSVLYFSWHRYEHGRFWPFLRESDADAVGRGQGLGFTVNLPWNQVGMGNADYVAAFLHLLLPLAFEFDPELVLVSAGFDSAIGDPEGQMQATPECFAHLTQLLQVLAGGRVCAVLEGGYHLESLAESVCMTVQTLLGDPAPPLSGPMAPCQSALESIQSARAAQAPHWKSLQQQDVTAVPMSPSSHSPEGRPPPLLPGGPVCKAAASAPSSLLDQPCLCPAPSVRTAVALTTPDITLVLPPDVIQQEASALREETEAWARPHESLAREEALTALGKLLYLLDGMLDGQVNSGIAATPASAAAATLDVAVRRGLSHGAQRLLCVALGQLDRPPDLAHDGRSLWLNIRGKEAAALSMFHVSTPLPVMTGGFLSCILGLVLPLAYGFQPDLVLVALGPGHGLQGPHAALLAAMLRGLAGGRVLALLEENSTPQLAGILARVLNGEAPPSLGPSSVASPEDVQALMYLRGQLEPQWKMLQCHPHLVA
Experimental: as §1

HDAC1 = HDAC1 (Homo sapiens, UniProt Q13547); assay: Selective inhibitory effect, HDAC Fluorogenic assay kit, HDAC1; conditions: read-out: HDAC1 enzyme activity (%)
HDAC1, sequence (Q13547 whole entry): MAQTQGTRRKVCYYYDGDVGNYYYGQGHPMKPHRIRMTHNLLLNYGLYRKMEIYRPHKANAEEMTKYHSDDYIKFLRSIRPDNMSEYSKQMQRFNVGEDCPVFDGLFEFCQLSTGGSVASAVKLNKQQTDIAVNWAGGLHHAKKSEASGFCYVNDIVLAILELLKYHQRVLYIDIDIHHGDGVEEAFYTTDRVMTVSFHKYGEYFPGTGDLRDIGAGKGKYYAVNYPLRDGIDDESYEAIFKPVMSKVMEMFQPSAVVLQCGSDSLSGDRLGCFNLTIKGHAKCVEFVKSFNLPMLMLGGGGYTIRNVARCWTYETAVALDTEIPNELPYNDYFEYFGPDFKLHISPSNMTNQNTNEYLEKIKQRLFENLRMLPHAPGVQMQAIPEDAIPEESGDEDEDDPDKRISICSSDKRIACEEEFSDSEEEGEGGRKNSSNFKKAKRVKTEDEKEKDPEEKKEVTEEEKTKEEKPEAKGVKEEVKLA
Experimental: as §1

[1] = tested on: PC-3 prostate cancer cells; assay: Prostate cancer cell growth inhibition, CCK-8 assay; type: cell-based, human; conditions: various concentrations, FIG. 1
Experimental: PC-3, a human-derived prostate cancer cell line, was cultured with RPMI1640 (10% fetal bovine serum, 1% Penicillin Streptomycin) culture medium at 37° C., 5% CO2 condition. All cells in the experiment were subcultured when they reached a confluency of approximately 80% to 90%, and only cells that had not passed 20 passages were used.
After culturing, 10 L CCK-8 reagent was added and the absorbance was measured after 1 hour. The absorbance was measured at 450 nm using a microplate reader [BMG Labtech (Offenburg, Germany)].

Compound: Cc1cc2nc(C(=O)NCc3ccc(CC(=O)NO)cc3)c(=O)n(C[C@H](O)[C@H](O)[C@H](O)CO)c2cc1C [Example 49, N-(4-(2-(hydroxyamino)-2-oxoethyl)benzyl)-6,7-dimethyl-3-oxo-4-((2S,3S,4R)-2,3,4,5-tetrahydroxypentyl)-3,4-dihydroquinoxaline-2-carboxamide]
- inhibitory activity against HDAC8 (in words) (HDAC8): inhibitory activity similar to TSA or SAHA

Compound: Cc1cc2nc(C(=O)Nc3cc(C(=O)NO)ccc3C)c(=O)n(C[C@H](O)[C@H](O)[C@H](O)CO)c2cc1C [Example 51, N-(5-(hydroxycarbamoyl)-2-methylphenyl)-6,7-dimethyl-3-oxo-4-((2S,3S,4R)-2,3,4,5-tetrahydroxypentyl)-3,4-dihydroquinoxaline-2-carboxamide]
- inhibitory activity against HDAC8 (in words) (HDAC8): inhibitory activity similar to TSA or SAHA

Compound: COc1ccc(Cn2ccc3ccc(C(=O)NO)cc32)cc1 [PCI-34051, N-hydroxy-1-(4-methoxybenzyl)-1H-indole-6-carboxamide, reference compound]
- Huh-7 cell viability (in words) (Liver cancer cells Huh-7): concentration-dependent inhibition of cancer cell viability

Compound: CC(/C=C/C(=O)NO)=C\[C@@H](C)C(=O)c1ccc(N(C)C)cc1 [TSA, Trichostatin A, reference compound]
- remaining activity at 10 µM (HDAC6): 1.11%
- remaining activity at 10 µM (HDAC2): 0.7%
- remaining activity at 10 µM (HDAC10): 1.21%
- remaining activity at 10 µM (HDAC1): 1.22%

Compound: Cc1cc2nc(C(=O)Nc3cc(-c4ccc(Br)cc4)no3)c(=O)n(C[C@H](O)[C@H](O)[C@H](O)CO)c2cc1C [Example 10, N-(3-(4-bromophenyl)isoxazol-5-yl)-6,7-dimethyl-3-oxo-4-((2S,3S,4R)-2,3,4,5-tetrahydroxypentyl)-3,4-dihydroquinoxaline-2-carboxamide]
- inhibitory activity against HDAC8 (in words) (HDAC8): inhibitory activity similar to TSA or SAHA

Compound: Cc1cc2nc(C(=O)Nc3ccc(C(=O)NO)cc3)c(=O)n(C[C@H](O)[C@H](O)[C@H](O)CO)c2cc1C [Example 48, N-(4-(hydroxycarbamoyl)phenyl)-6,7-dimethyl-3-oxo-4-((2S,3S,4R)-2,3,4,5-tetrahydroxypentyl)-3,4-dihydroquinoxaline-2-carboxamide]
- inhibitory activity against HDAC8 (in words) (HDAC8): inhibitory activity similar to TSA or SAHA

Compound: Cc1cc2nc(C(=O)Nc3nc4c(F)cccc4[nH]3)c(=O)n(C[C@H](O)[C@H](O)[C@H](O)CO)c2cc1C [Example 35, N-(4-fluoro-1H-benzo[d]imidazol-2-yl)-6,7-dimethyl-3-oxo-4-((2S,3S,4R)-2,3,4,5-tetrahydroxypentyl)-3,4-dihydroquinoxaline-2-carboxamide]
- PC-3 cell viability after 24 hours (in words) ([1]; 24 hours): concentration-dependent inhibition of cancer cell viability
- PC-3 cell viability after 48 hours (in words) ([1]; 48 hours): cell viability was restored
- Huh-7 cell viability (in words) (Liver cancer cells Huh-7): concentration-dependent inhibition of cancer cell viability
- inhibitory activity against HDAC8 (in words) (HDAC8): inhibitory activity similar to TSA or SAHA

Compound: Cc1cc2nc(C(=O)NCc3ccc4[nH]cnc4c3)c(=O)n(C[C@H](O)[C@H](O)[C@H](O)CO)c2cc1C [Example 34, N-((1H-benzo[d]imidazol-5-yl)methyl)-6,7-dimethyl-3-oxo-4-((2S,3S,4R)-2,3,4,5-tetrahydroxypentyl)-3,4-dihydroquinoxaline-2-carboxamide]
- inhibitory activity against HDAC8 (in words) (HDAC8): inhibitory activity similar to TSA or SAHA
